Assay [1] relates to STING signaling. Kind of assay: Luciferase live cell assay, type I IFN promoter in hTERT-pIFNβ-Glu cells after ISD transfection. Format: cell-based, human. The conditions noted are these: for criteria to inhibit STING dependent signaling (type I IFN promoter in human cells): test of the 25 novel analogs; for inhibitory activity of the type I IFN promoter (luciferase induction): hTERT-pIFNβ-Glu cells, 50 μM or 25 μM, in response to ISD. Here is the method:
Inhibition of IFNβ expression was measured by Luciferase induction at 24 hours after transfection of ISD, Mock is shown (210), ISD treatment only (220) was used as a control, according to an embodiment of the invention;
Example 1: Identification of small molecule antagonists of STING. In the presence of cytosolic DNA species, STING becomes activated to drive the transcription of cytokines such as type I IFN. Compounds binding to STING via TSA were subsequently examined for their ability to prevent cytosolic DNA species from activating the type I interferon (IFN) promoter, using a live cell assay. This assay comprised immortalized human fibroblasts that were stably transfected with the type I IFN promoter driving luciferase as well as the CMV promoter driving SEAP (hTERT-pIFNβ-Glu). The live cell assay has previously been disclosed in PCT/JS2019/025380 entitled IFN-βETA REPORTER SYSTEM FOR IMMORTALIZED PRIMARY CELLS inventor Glen N. Barber, which was filed Apr. 2, 2018 and published as WO2019195285, and which is herein incorporated by reference in its entirety and for all purposes. The ability of the small molecules to prevent activation of the type I IFN promoter and the transcription of luciferase, but not SEAP in response to cytosolic DNA species was assessed. The activation of STING, typically by CDNs, in turn activates the transcription factors NF-κB and IRF3, both of which are required to induce the transcriptional stimulation of the Type I IFN promoter, but not the CMV promoter as IRF3 and NF-kB transcription factor binding sites are not contained in the CMV promoter. The assay identified the small molecule Compound Y1 in the first screen (HTS), where the level of luciferase was not able to activate the type I IFN promoter or induce the expression of luciferase (see Table I).
Example 4: hTERT-BJ1 Telomerase Fibroblasts (hTERT) were originally purchased from Clontech and were cultured in 4:1 ratio of DMEM:Medium 199 supplement with 10% FBS, 4 mM L-Glutamine and 1 mM sodium pyruvate at 37° C. in a 5% CO2-humidified atmosphere. hTERT-BJ1 Telomerase Fibroblasts stably expressing the luciferase gene under the control of the interferon-beta promoter and SEAP gene under control of the CMV promoter) (hTERT-pIFNβ-Glu) were generated by the Barber laboratory.
Example 7: Luciferase assay: hTERT-BJ1 Telomerase Fibroblasts stably expressing the luciferase gene under the control of the interferon-beta promoter and SEAP gene under control of the CMV promoter) (hTERT-pIFNβ-Glu) were generated by the Barber laboratory. Luciferase assay was performed using Secrete-Pair Dual Luminescence Assay Kit from GeneCopoeia following the manufacturer's protocol.

The subject of assay [2] is STING signaling. Kind of assay: qPCR of IFNβ1 / Cxcl10 in normal hTERT cells after ISD transfection. To be noted: normal hTERT cells stimulated with ISD; 50 μM, 25 μM or 5 μM. Format: cell-based, human. The method, then:
(§1) Example 11: qPCR total RNA were reverse-transcribed using M-MLV Reverse Transcriptase (Promega). Real-time PCR was performed using Taqman Gene Expression Assay (Applied Biosystems) for innate immune genes and inflammatory cytokines.
A general note: In qPCR the cycle at which signal appears reflects the starting amount.

Assay [3] has as its system STING signaling. The assay is described as follows: Confocal analysis of STING trafficking and IRF3 translocation in hTERT cells. Type of assay: cell-based, human. The conditions noted are these: 6 hours after ISD transfection. The method, then:
FIG. 2E are photographs showing confocal analysis of STING trafficking using anti-Sting performed at 6 hours after ISD transfection with Y1+220/without 220, Mock is shown (210), ISD treatment only (220) was used as control, treatment same as in FIG. 2A, according to an embodiment of the invention;
Example 10: Immunofluorescence Microscopy: Cells were cultured and treated in their appropriate media on Lab-Tek II chamber slides. Cell were fixed with 4% paraformaldehyde for 15 minutes in at 37° C. and permeabilized with 0.05% Triton X-100 for 5 minutes at room temperature. Immunostaining was performed with rabbit-anti-STING polyclonal, rabbit-anti-IRF3 (Santa Cruz Biotechnology) or rabbit-anti-p65 (Cell Signaling) followed by fluorescence conjugated secondary antibodies (FITC-goat-anti-rabbit) (Invitrogen).

Assay [4] concerns STING signaling. Kind of assay: qPCR of Cxcl10 / Cxcl5 in MEF cells after ISD transfection. Format: cell-based, murine. The method, then: MEFs were obtained from E13.5 embryos by a standard procedure. Bone Marrow Derived Macro-phages (BMDM) were isolated from hind-limb femurs of 8-10 weeks old WT and Trex1 KO (TKO) mice. The hematopoietic cells from the bone marrow were cultured in complete DMEM (Invitrogen) including 10 ng/ml of Mouse Recombinant Colony-Stimulating Factor (M-CSF, R&D Systems) for 10 to 14 days.
as §1

Assay [5] deals with STING signaling. The assay is described as follows: Western blot of STING, TBK1 and IRF3 phosphorylation in MEF cells. To be noted: cytosolic DNA. Format: cell-based, murine. The method, then:
Example 8: Immunoblot analysis: Equal amounts of proteins were resolved on sodium dodecyl sulfate (SDS)-Polyacrylamide gels and then transferred to polyvinylidene fluoride (PVDF) membranes (Millipore). After blocking with 5% Blocking Reagent, membranes were incubated with various primary antibodies (and appropriate secondary antibodies). The image was resolved using an enhanced chemiluminescence system ECL (Thermo Scientific) and detected by autoradiography (Kodak). Antibodies: rabbit polyclonal antibody against STING was developed in our laboratory as described previously in Ishikawa et al, 2008; other antibodies were obtained from following sources: β-actin (Sigma Aldrich), p-IRF3 (Cell Signaling), IRF3 (Santa Cruz Biotechnology), p-p65 (Cell Signaling), p65 (Cell Signaling), p-TBK1 (Cell Signaling), TBK1 (Abcam), cGAS (Cell Signaling).
A general note: A western blot detects proteins with antibodies after separation by electrophoresis.

“Also recorded” adds a separate entry of the source.

Turning to `COCCn1c(NC(=O)c2ccccc2Cl)c(C#N)c2nc3ccccc3nc21` [Compound Y3, 2-chloro-N-[3-cyano-1-(2-methoxyethyl)-1H-pyrrolo [2,3-ß]iquinoxalin-2-yl] benzamide], the “criteria to inhibit STING dependent signaling (type I IFN promoter in human cells)” value in assay [1] is “found to meet the criteria to inhibit STING dependent signaling; also recorded: found to meet the criteria to inhibit STING dependent signaling and showed the most effective inhibitory activity”.

`N#Cc1c(NC(=O)c2c(F)cccc2Cl)n(CCc2ccccc2)c2nc3ccccc3nc12` [Compound Y6, 2-chloro-N-[3-cyano-1-(2-phenylethyl)-1H-pyrrolo [2,3-b]quinoxalin-2-yl]-6-fluorobenzamide]: in assay [1], the “inhibitory activity of the type I IFN promoter (luciferase induction)” value (shortened to “inhibitory activity”) is listed as “showed robust inhibitory activity of the type I IFN promoter”; the “criteria to inhibit STING dependent signaling (type I IFN promoter in human cells)” value is “found to meet the criteria to inhibit STING dependent signaling; also recorded: found to meet the criteria to inhibit STING dependent signaling and showed the most effective inhibitory activity”. The “production of STING-inducible cytokine Cxcl10 (qPCR)” value in assay [2] is “robustly inhibited”.

As to `N#Cc1c(NC(=O)c2ccccc2Cl)n(CCc2cccc(F)c2)c2nc3ccccc3nc12` [Compound Y7, 2-chloro-N-{3-cyano-1-[2-(3-fluorophenyl)ethyl]-1H-pyrrolo[2,3-b]quinoxalin-2-yl}benzamide], in assay [1], the “inhibitory activity” value is on record as “showed robust inhibitory activity of the type I IFN promoter”; the “criteria to inhibit STING dependent signaling (type I IFN promoter in human cells)” value is “found to meet the criteria to inhibit STING dependent signaling; also recorded: found to meet the criteria to inhibit STING dependent signaling and showed the most effective inhibitory activity”. For the same compound, the “production of STING-inducible cytokine Cxcl10 (qPCR)” value in assay [2] is reported as “robustly inhibited”.

Take `Cc1ccc(Cl)c(C(=O)Nc2c(C#N)c3nc4ccccc4nc3n2CCc2ccccc2)c1` [Compound Y4, 2-chloro-N-[3-cyano-1-(2-phenylethyl)-1H-pyrrolo [2,3-b]quinoxalin-2-yl]-5-methylbenzamide]: in assay [1], the “inhibitory activity” value was “showed robust inhibitory activity of the type I IFN promoter”; the “criteria to inhibit STING dependent signaling (type I IFN promoter in human cells)” value was “found to meet the criteria to inhibit STING dependent signaling; also recorded: found to meet the criteria to inhibit STING dependent signaling and showed the most effective inhibitory activity”. Besides, the “production of STING-inducible cytokine Cxcl10 (qPCR)” value in assay [2] was “robustly inhibited”. For the same compound, in assay [3], the “IRF3 translocation (confocal analysis)” value was “reproducibly prevented STING trafficking and IRF3 phosphorylation”; the “STING trafficking (confocal analysis)” value is “reproducibly prevented STING trafficking and IRF3 phosphorylation”. Further, the “Cxcl10 production in response to ISD (qPCR)” value in assay [4] is on record as “impede the production of Cxcl10”. The “phosphorylation of TBK1, IRF3 and STING (Western blot)” value in assay [5] was “can prevent the phosphorylation of TBK1 and IRF3 as well as STING phosphorylation”.

As for `N#Cc1c(NC(=O)c2ccccc2Cl)n(CCOc2ccccc2)c2nc3ccccc3nc12` [Compound Y2, 2-chloro-N-[3-cyano-1-(2-phenoxyethyl)-1H-pyrrolo [2,3-b]quinoxalin-2-yl] benzamide], in assay [1], the “criteria to inhibit STING dependent signaling (type I IFN promoter in human cells)” value is “found to meet the criteria to inhibit STING dependent signaling; also recorded: found to meet the criteria to inhibit STING dependent signaling and showed the most effective inhibitory activity”.

Regarding `N#Cc1c(NC(=O)c2cccc(F)c2Cl)n(CCc2ccccc2)c2nc3ccccc3nc12` [Compound Y5, 2-chloro-N-[3-cyano-1-(2-phenylethyl)-1H-pyrrolo [2,3-b]quinoxalin-2-yl]-3-floorobenzamide], in assay [1], the “inhibitory activity” value is recorded as “showed robust inhibitory activity of the type I IFN promoter”; the “criteria to inhibit STING dependent signaling (type I IFN promoter in human cells)” value was “found to meet the criteria to inhibit STING dependent signaling; also recorded: found to meet the criteria to inhibit STING dependent signaling and showed the most effective inhibitory activity”. Moreover, the “production of STING-inducible cytokine Cxcl10 (qPCR)” value in assay [2] was “robustly inhibited”.

For `N#Cc1c(NC(=O)c2cccc(Cl)c2Cl)n(CCc2ccccc2)c2nc3ccccc3nc12` [Compound Y8, 2,3-dichloro-N-[3-cyano-1-(2-phenylethyl)-1H-pyrrolo[2,3-b]quinoxalin-2-yl]benzamide], in assay [1], the “inhibitory activity” value is listed as “showed robust inhibitory activity of the type I IFN promoter”; the “criteria to inhibit STING dependent signaling (type I IFN promoter in human cells)” value is “found to meet the criteria to inhibit STING dependent signaling; also recorded: found to meet the criteria to inhibit STING dependent signaling and showed the most effective inhibitory activity”. For the same compound, the “production of STING-inducible cytokine Cxcl10 (qPCR)” value in assay [2] is listed as “robustly inhibited”. Also, in assay [3], the “IRF3 translocation (confocal analysis)” value is “reproducibly prevented STING trafficking and IRF3 phosphorylation”; the “STING trafficking (confocal analysis)” value is “reproducibly prevented STING trafficking and IRF3 phosphorylation”. In assay [4], the “Cxcl10 production in response to ISD (qPCR)” value is recorded as “impede the production of Cxcl10”. The “phosphorylation of TBK1, IRF3 and STING (Western blot)” value in assay [5] is “can prevent the phosphorylation of TBK1 and IRF3 as well as STING phosphorylation”.

The record behind these values is patent US12410174B1, “Small molecular inhibitors of sting signaling compositions and methods of use” (TYERELL IMMUNOTHERAPEUTICS INC, priority 2020, dated 2025).
